For the experiment, the system named is Male Sprague-Dawley rats. In words: Carrageenan-induced mechanical hyperalgesia (CIMH), paw withdrawal threshold. Particulars: rat, per orally. Type of experiment: in vivo. Here is the method:
Carrageenan-induced mechanical hyperalgesia (CIMH)[1] is utilized to evaluate analgesic activity of drugs against acute inflammatory pain.
1% carrageenan is prepared at least two days before use. An appropriate amount of λ-carrageenain is weighed into a 10 ml screw vial. Sterile saline is added to make 1% (w/v) suspension solution and the suspension is stirred for 8 hours with gentle heating to be dissolved obtain homogeneous suspension.
Male Sprague-Dawley rats, 4 W (Japan SLC or Charles River Japan), 100-130 g are used. Environment conditions are controlled at a 12-h light/dark cycle with (lights on 076:00 a.m.). and an ambient temperature of 23+/−2 deg. C. Prior to start the experiment, animals are housed under this condition for 4-5 days. Each group is used a group of 6-8 rats. The rats are fasted for 16-18 hours before use and the rats are trained for measurement of mechanical threshold using the apparatus for two days before use.
The paw withdrawal response of the rat to increased pressure on a right hindpaw is recorded as mechanical threshold. The threshold is defined as “pre value”. Hyperalgesia is induced by intraplantar injection of 0.1 ml of 1% carrageenain in the right hindpaw. The paw withdrawal threshold is measured at 3.5 and 4.5 hours after the carrageenan injection. Rats are randomly grouped by the paw withdrawal threshold at 4.5 hours and pre value after the carrageenan injection. Vehicle or test compounds (10 ml of 0.1% methylcellulose/1 kg body weight) are given per orally at 5.5 hours after the carrageenain injection. The paw withdrawal Mechanical threshold is measured by an analgesy meter at 4, 5, 6.5 and 7.5 hours after the carrageenin carrageenan injection. The threshold at 6.5 or 7.5 hours is determined as ‘post value’.
% change in threshold=(preost value−postre value)/(pre value)×100% inhibition=(B−A)/(C−A)×100
A=average of % change in threshold post values in disease control (vehicle treated) group B=average of % change in threshold post values in compound treated group C=average of pre values of all rats used
% inhibition=(A−B)/|A|×100
The data is analyzed with unpaired t-test or one-way ANOVA (plus multiple comparison test) for % change in thresholdpost values. Results are considered significant when p<0.05 versus disease control group.

Structures are written as SMILES.

Take `CC(C)C[C@H](CN)CC(=O)O` [Pregabalin, (S)-(+)-4-amino-3-(2-methylpropyl)butanoic acid]: the “Inhibition (%) 2 hours post dosing” value is, setting by setting: (dose 3 mg/kg) 1.6%; (dose 10 mg/kg) 8.4%; (dose 30 mg/kg) 16.4%; (dose 100 mg/kg) 31%.

Turning to `C[C@H](NC(=O)c1cc(Cl)cnc1Oc1cccc(F)c1)c1ccc(C(=O)O)cc1` [4-[(1S)-1-({[5-chloro-2-(3-fluorophenoxy)pyridin-3-yl]carbonyl}amino)ethyl]benzoic acid], the “Inhibition (%) 2 hours post dosing” value (dose 0.3 mg/kg) is reported as 19.2%, the “Inhibition (%) 2 hours post dosing” value (dose 1 mg/kg) was determined as 41.9% and the “Inhibition (%) 2 hours post dosing” value (dose 3 mg/kg) was found to be 50%.

(Values after patent US20090036495A1, “Combinations Comprising Alpha-2-Delta Ligands and Ep4 Receptor Antagonists” (Pfizer, Inc., priority 2004, published 2009).)
